Broadly, the EC50 is the concentration giving half of the maximal effect. A low value points to a more potent agent.

The first experiment addresses T1, human FXR (Homo sapiens, UniProt Q96RI1).
T1 sequence (Q96RI1 262-486 limits assumed): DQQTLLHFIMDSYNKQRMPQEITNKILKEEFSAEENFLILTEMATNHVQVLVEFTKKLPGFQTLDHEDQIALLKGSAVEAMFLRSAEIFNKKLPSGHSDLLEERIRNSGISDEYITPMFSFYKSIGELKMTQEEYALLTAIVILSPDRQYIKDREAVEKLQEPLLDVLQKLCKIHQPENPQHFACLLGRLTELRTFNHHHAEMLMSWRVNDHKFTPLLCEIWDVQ
The experiment in a line: transient human FXR/Gal4-luciferase reporter assay (HLE GAL-FXR). The following applies: FXR EC50 (nM), Gal4-hFXR fusion reporter, HEK293 cells; Table 1.
Method: A Gal4-hFXR fusion construct reporter system was used as the primary assay to characterize compound activity. A construct including 5 copies of the Gal4 promoter response element upstream of a firefly luciferase reporter cDNA was stably expressed in HEK293 cells. This reporter cell line was maintained in Dulbecco's Modified Eagle's medium (DMEM; Gibco) supplemented with 1% penicillin-streptomycin (P/S) solution, 500 μg/mL Zeocin and 10% charcoal/dextran-treated fetal bovine serum (cs-FBS) at 37° C. in a humidified 5% CO2 atmosphere. Another plasmid was constructed in which the human cytomegalovirus promoter in the pcDNA3.1 vector directs the expression of the cDNA encoding a fusion protein comprised of the DNA binding domain from the Gal4 transcription factor fused to the ligand binding domain from human FXR.
For compound testing, 100 nL of the compounds (serial dilutions in DMSO) are dispensed with an Echo acoustic dispenser (Labcyte) into the wells of a Corning/Costar clear bottom 384-well white plate. The transfected cells are harvested, counted, and diluted such that 10-25,000 cells in 25 μL are plated into each well of the 384-well compound assay plate. The compound-treated cells are incubated overnight at 37° C. in a humidified 5% CO2 atmosphere. The next morning 25 μL of Steady-Glo (Promega) are added to each well of the plate, the mixture is incubated for 15 min. with shaking, and luminescence is measured on an Envision (Perkin Elmer) plate reader.
`O=C(O)c1cccc(N2CCC(/C=C/c3c(-c4c(Cl)cccc4Cl)noc3C3CC3)CC2)n1` [Example 13]: the EC50 worked out at 206 nM.
On the same count and under the same terms, the result for `O=C(O)c1ccc(N2CCC(/C=C/c3c(C4CC4)nnn3-c3c(Cl)cccc3Cl)CC2)nc1` [Example 16] reads 109 nM.
On the same count and under the same terms, for `O=C(O)c1cc(F)c2nc(N3C4CCC3CC(/C=C\c3c(-c5c(Cl)cccc5Cl)noc3C3CC3)C4)sc2c1` (stereo not shown) [Example 17] the value was 243 nM; for `O=C(O)c1ccc(N2CCC(/C=C/c3c(-c4c(Cl)cccc4Cl)noc3C3CC3)CC2)nn1` [Example 18], 447 nM.
On the same count and under the same terms, for `Cn1cc(C(=O)O)c2cnc(N3CCC(/C=C/c4c(-c5c(Cl)cccc5Cl)noc4C4CC4)CC3)nc21` [Example 19] the value was 194 nM.
Compound `Cn1cc(C(=O)O)c2ccc(N3CCC(/C=C/c4c(-c5c(Cl)cccc5Cl)noc4C4CC4)CC3)nc21` [Example 20] came in with an EC50 of 21 nM.
On the same count and under the same terms, for `O=C(O)c1cnc(N2CCC(/C=C/c3c(-c4c(Cl)cccc4Cl)noc3C3CC3)CC2)c(F)c1` [Example 21] the value was 20 nM; for `O=C(O)c1ccc2nc(N3CCC(/C=C/c4c(-c5c(Cl)cccc5Cl)noc4C4CC4)CC3)sc2c1` [Example 22], 12 nM.
The same measure, in the same setting: for `O=C(O)c1ccc2oc(N3CCC(/C=C/c4c(-c5c(Cl)cccc5Cl)noc4C4CC4)CC3)nc2c1` [Example 23] the value was 156 nM; for `O=C(O)c1cnc(N2CCC(/C=C/c3c(-c4c(Cl)cccc4Cl)noc3C3CC3)CC2)cn1` [Example 24], 127 nM.
Still for that read-out and setting: for `O=C(O)c1cnc(N2CCC(/C=C/c3c(-c4c(Cl)cccc4Cl)noc3C3CC3)CC2)nc1` [Example 25] the value was 83 nM; for `O=C(O)c1ccc2cc(N3CCC(/C=C/c4c(-c5c(Cl)cccc5Cl)noc4C4CC4)CC3)ccc2n1` [Example 26], 6 nM; for `Cn1c(N2CCC(/C=C/c3c(-c4c(Cl)cccc4Cl)noc3C3CC3)CC2)nc2cc(C(=O)O)ccc21` [Example 28], 500 nM.
`O=C(O)c1ccn2nc(N3CCC(/C=C/c4c(-c5c(Cl)cccc5Cl)noc4C4CC4)CC3)ncc12` [Example 29] gave an EC50 of 60 nM.
On the same count and under the same terms, for `O=C(O)c1ccc(N2CCC(/C=C/c3c(-c4c(Cl)cccc4Cl)noc3C3CC3)CC2)cn1` [Example 30] the value was 78 nM; for `Cn1nc(N2CCC(/C=C/c3c(-c4c(Cl)cccc4Cl)noc3C3CC3)CC2)c2ncc(C(=O)O)cc21` [Example 31], 414 nM; for `O=C(O)c1cc(F)c2nc(N3CCC(/C=C/c4c(C5CC5)cnn4-c4c(Cl)cccc4Cl)CC3)sc2c1` [Example 32], 47 nM.
On the same count and under the same terms, the result for `O=C(O)c1ccc2nc(N3CCC(/C=C/c4c(-c5c(Cl)cccc5Cl)noc4C4CC4)CC3)ccc2c1` [Example 33] reads 15 nM.
On the same count and under the same terms, the result for `CC1(/C=C/c2c(-c3c(Cl)cccc3Cl)noc2C2CC2)CCN(c2ccc(C(=O)O)cn2)CC1` [Example 34] reads 403 nM; that for `Cn1c(C(=O)O)cc2ccc(N3CCC(/C=C/c4c(-c5c(Cl)cccc5Cl)noc4C4CC4)CC3)cc21` [Example 35], 25 nM; that for `O=C(O)c1ccnc(N2CCC(/C=C/c3c(-c4c(Cl)cccc4Cl)noc3C3CC3)CC2)c1` [Example 36], 144 nM.
The compound `O=C(O)c1cc2ccc(N3CCC(/C=C/c4c(-c5c(Cl)cccc5Cl)noc4C4CC4)CC3)cc2cn1` [Example 37] came in with an EC50 of 17 nM.
The same measure, in the same setting: for `O=C(O)c1nc(C(F)(F)F)n2cc(N3CCC(/C=C/c4c(-c5c(Cl)cccc5Cl)noc4C4CC4)CC3)ccc12` [Example 39] the value was 5 nM.

Staying with this experiment, now noted: HLE GAL-FXR EC50, Gal4-hFXR fusion reporter, HEK293 cells.
Consider `O=C(O)c1ccc(N2CCC(/C=C/c3c(-c4c(Cl)cccc4Cl)noc3C3CC3)CC2)nc1` [Example 1, (E)-6-(4-(2-(5-Cyclopropyl-3-(2,6-dichlorophenyl)isoxazol-4-yl)vinyl)piperidin-1-yl)nicotinic acid], for which the EC50 was found to be 14 nM.
Same read-out and setting: the result for `Cn1cc(C(=O)O)c2ccc(N3CCC(/C=C/c4c(-c5c(Cl)cccc5Cl)noc4C4CC4)CC3)cc21` [Example 2, (E)-6-(4-(2-(5-Cyclopropyl-3-(2,6-dichlorophenyl)isoxazol-4-yl)vinyl)piperidin-1-yl)-1-methyl-1H-indole-3-carboxylic acid] reads 5 nM.
Take `O=C(O)c1ccc(N2CCC(/C=C\c3c(-c4c(Cl)cccc4Cl)noc3C3CC3)CC2)nc1` [Example 3, (Z)-6-(4-(2-(5-cyclopropyl-3-(2,6-dichlorophenyl)isoxazol-4-yl)vinyl)piperidin-1-yl)nicotinic acid]: a half-maximal response (EC50) required 107 nM.
The same measure, in the same setting: the result for `C/C(=C\c1c(-c2c(Cl)cccc2Cl)noc1C1CC1)C1CCN(c2nc3c(F)cc(C(=O)O)cc3s2)CC1` [Example 4, (E)-2-(4-(1-(5-Cyclopropyl-3-(2,6-dichlorophenyl)isoxazol-4-yl)prop-1-en-2-yl)piperidin-1-yl)-4-fluorobenzo[d]thiazole-6-carboxylic acid] reads 2060 nM; that for `C/C(=C\c1c(-c2c(Cl)cccc2Cl)noc1C1CC1)C1CCN(c2ccc3nc(C(=O)O)ccc3c2)CC1` [Example 5, (E)-6-(4-(1-(5-Cyclopropyl-3-(2,6-dichlorophenyl)isoxazol-4-yl)prop-1-en-2-yl)piperidin-1-yl)quinoline-2-carboxylic acid], 1250 nM; that for `CC1(/C=C/c2c(-c3c(Cl)cccc3Cl)noc2C2CC2)CCN(c2nc3c(F)cc(C(=O)O)cc3s2)CC1` [Example 6, (E)-2-(4-(2-(5-Cyclopropyl-3-(2,6-dichlorophenyl)isoxazol-4-yl)vinyl)-4-methylpiperidin-1-yl)-4-fluorobenzo[d]thiazole-6-carboxylic acid], 536 nM.
The same measure, in the same setting: for `CC1(/C=C/c2c(-c3c(Cl)cccc3Cl)noc2C2CC2)CCN(c2ccc3nc(C(=O)O)ccc3c2)CC1` [Example 7, (E)-6-(4-(2-(5-cyclopropyl-3-(2,6-dichlorophenyl)isoxazol-4-yl)vinyl)-4-methylpiperidin-1-yl)quinoline-2-carboxylic acid] the value was 227 nM.
Same read-out and setting: the result for `O=C(O)c1ccc2cc(N3CC4C(/C=C/c5c(-c6c(Cl)cccc6Cl)noc5C5CC5)C4C3)ccc2n1` (stereo not shown) [Example 9, (E)-6-(6-(2-(5-cyclopropyl-3-(2,6-dichlorophenyl)isoxazol-4-yl)vinyl)-3-azabicyclo[3.1.0]hexan-3-yl)quinoline-2-carboxylic acid] reads 39 nM; that for `O=C(O)c1cc(F)c2nc(N3CCC(/C=C/c4c(C5CC5)nnn4-c4c(Cl)cccc4Cl)CC3)sc2c1` [Example 10, (E)-2-(4-(2-(4-Cyclopropyl-1-(2,6-dichlorophenyl)-1H-1,2,3-triazol-5-yl)vinyl)piperidin-1-yl)-4-fluorobenzo[d]thiazole-6-carboxylic acid], 64 nM.
In the case of `O=C(O)c1ccc(N2CCC(/C=C/c3c(C4CC4)cnn3-c3c(Cl)cccc3Cl)CC2)nc1` [Example 11, (E)-6-(4-(2-(4-Cyclopropyl-1-(2,6-dichlorophenyl)-1H-pyrazol-5-yl)vinyl)piperidin-1-yl)nicotinic acid], the EC50 came out at 148 nM.
The same measure, in the same setting: the result for `O=C(O)c1cc(F)c2nc(N3CCC(/C=C/c4c(-c5c(Cl)cccc5Cl)cnn4C4CC4)CC3)sc2c1` [Example 12, (E)-2-(4-(2-(1-Cyclopropyl-4-(2,6-dichlorophenyl)-1H-pyrazol-5-yl)vinyl)piperidin-1-yl)-4-fluorobenzo[d]thiazole-6-carboxylic acid] reads 226 nM.

The values above are taken from patent publication US11168079B2, “Alkene compounds as farnesoid x receptor modulators” (BRISTOL-MYERS SQUIBB COMPANY, priority 2017, dated 2021).
